Active and inactive are the calls of the source. No cut-off for these calls is given here.
Key:
[1] = target: T1, Tyrosine-protein phosphatase non-receptor type 1 (Homo sapiens, UniProt P18031); assay: (§1) Inhibition of PTP1B
T1 sequence (P18031 whole entry): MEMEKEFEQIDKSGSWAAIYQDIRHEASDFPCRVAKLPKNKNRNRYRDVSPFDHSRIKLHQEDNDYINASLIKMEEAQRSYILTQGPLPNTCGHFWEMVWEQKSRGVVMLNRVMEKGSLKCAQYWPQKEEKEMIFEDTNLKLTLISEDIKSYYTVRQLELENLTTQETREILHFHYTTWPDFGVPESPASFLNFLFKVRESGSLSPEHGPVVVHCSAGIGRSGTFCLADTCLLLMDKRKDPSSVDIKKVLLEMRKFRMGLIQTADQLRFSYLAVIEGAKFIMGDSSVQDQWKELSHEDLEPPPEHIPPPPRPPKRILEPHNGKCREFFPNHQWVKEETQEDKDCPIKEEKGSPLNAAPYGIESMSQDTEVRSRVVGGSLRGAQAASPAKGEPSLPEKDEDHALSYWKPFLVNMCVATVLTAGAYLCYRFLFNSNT

[2] = target: T2, Tyrosine-protein phosphatase non-receptor type 1 (Homo sapiens) (UniProt P18031); assay: as §1
T2 sequence (whole entry): T1 sequence (P18031 whole entry)

[3] = target: T2, Tyrosine-protein phosphatase non-receptor type 1 (Homo sapiens); assay: Non competitive inhibition of PTP1B assessed as inhibition of substrate catalysis by Lineweaver-Burke plot

Structure (SMILES) | IC50 [1] | Activity [2] | Activity [3]
COc1cc(O)c(C(C)=O)c(O)c1C | > 200 µM |  | 
COC(=O)c1c(C)cc(O)c(C=O)c1O [METHYL HAEMATOMMATE] | > 200 µM |  | 
COC(=O)c1c(C)cc(O)cc1O [METHYL ORSELLINATE] | > 200 µM |  | 
CCCCCc1c2c(cc(O)c1C(=O)O)OC(=O)c1c(cc(OC)cc1C(=O)CCCC)O2 |  | Dose-dependent effect | Active

Next, values leading:

IC50 [1] | Activity [2] | Activity [3] | Structure (SMILES)
3.02 µM |  |  | CCCCCc1c2c(cc(O)c1C(=O)OC)OC(=O)c1c(cc(OC)cc1C(=O)CCCC)O2
63.5 µM |  |  | COC(=O)c1c(C)cc(OC(=O)c2c(C)cc(O)c(C=O)c2O)c(C)c1O [ATRANORIN]
7.42 µM |  |  | CCCCCc1c2c(cc(OC)c1C(=O)OC)OC(=O)c1c(cc(OC)cc1C(=O)CCCC)O2
2.48 µM | Dose-dependent effect |  | CCCCCc1c(Oc2cc(OC)cc3c2C(=O)OC3(CCCC)OC)c(O)cc(O)c1C(=O)O (stereo not drawn)
6.86 µM | Dose-dependent effect | Active | CCCCCc1cc(O)cc(O)c1Oc1cc(OC)cc2c1C(=O)OC2(CCCC)OC (stereo not drawn)

— ChEMBL document CHEMBL1151873, “Protein tyrosine phosphatase 1B inhibitory effects of depsidone and pseudodepsidone metabolites from the Antarctic lichen Stereocaulon alpinum” (Bioorg Med Chem Lett, 2009)
